Results reported in patent US9062041B2 (Bayer Intellectual Property GmbH, priority 2011, dated 2015).
pIC50: −log10 of the molar value.

Legend:
Assay type in all cases: cell-based
[1] = target: EP2 subtype of the human PGE2 receptor (Homo sapiens, UniProt P43116); assay: cAMP antagonism test on the human EP2 receptor (HTRF cAMP detection); conditions: hEP2 receptor, read-out: Antagonism hEP2 IC50
Method in brief: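 Cells expressing human EP2 preincubated 20 min at RT with compound (0.8 nM–16.5 μM), then stimulated 60 min with PGE2 (3× solution 1.5 nM) in PBS-IBMX. After 20 min lysis, cAMP measured by competitive HTRF with cAMP-d2 and Eu cryptate anti-cAMP antibody (665/620 nm ratio).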

[2] = target: T1, human PGD receptor (Homo sapiens, UniProt Q13258); assay: cAMP antagonism test on the human prostaglandin D receptor (HTRF cAMP detection); conditions: selectivity towards hDP, IC50 measured by cAMP antagonism test
T1 sequence (Q13258 1-359): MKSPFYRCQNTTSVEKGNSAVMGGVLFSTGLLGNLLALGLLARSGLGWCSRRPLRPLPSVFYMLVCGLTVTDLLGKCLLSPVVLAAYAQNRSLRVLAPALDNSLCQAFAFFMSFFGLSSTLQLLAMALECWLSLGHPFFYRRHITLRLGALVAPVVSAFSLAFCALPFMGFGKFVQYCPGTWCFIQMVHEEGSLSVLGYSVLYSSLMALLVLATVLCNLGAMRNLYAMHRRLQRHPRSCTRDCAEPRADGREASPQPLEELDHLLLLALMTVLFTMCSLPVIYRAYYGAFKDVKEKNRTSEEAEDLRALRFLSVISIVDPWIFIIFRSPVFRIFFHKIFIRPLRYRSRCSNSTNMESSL
Method in brief: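 Cells pre-mixed with cAMP-d2 were preincubated with compound (0.8 nM–16.5 μM) for 20 min at RT, then stimulated with 3× PGD2 solution (6 nM, in PBS-IBMX) for 30 min at RT. After lysis (20 min), HTRF read at 665/620 nm; antagonism seen as rise in FRET ratio.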

[3] = target: EP4 subtype of the human PGE2 receptor (Homo sapiens, UniProt P35408); assay: cAMP antagonism test on the human EP4 receptor (HTRF cAMP detection); conditions: selectivity towards hEP4, IC50 measured by cAMP antagonism test
Method in brief: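 Cells expressing human EP4 preincubated 20 min at RT with compound (0.8 nM–16.5 μM), then stimulated with PGE2 (0.3 nM in 3× solution, with IBMX) 60 min at RT. After lysis, cAMP measured by HTRF competition (665/620 nm ratio); antagonism seen as rise in FRET signal.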

EP4 subtype of the human PGE2 receptor, sequence (P35408 whole entry): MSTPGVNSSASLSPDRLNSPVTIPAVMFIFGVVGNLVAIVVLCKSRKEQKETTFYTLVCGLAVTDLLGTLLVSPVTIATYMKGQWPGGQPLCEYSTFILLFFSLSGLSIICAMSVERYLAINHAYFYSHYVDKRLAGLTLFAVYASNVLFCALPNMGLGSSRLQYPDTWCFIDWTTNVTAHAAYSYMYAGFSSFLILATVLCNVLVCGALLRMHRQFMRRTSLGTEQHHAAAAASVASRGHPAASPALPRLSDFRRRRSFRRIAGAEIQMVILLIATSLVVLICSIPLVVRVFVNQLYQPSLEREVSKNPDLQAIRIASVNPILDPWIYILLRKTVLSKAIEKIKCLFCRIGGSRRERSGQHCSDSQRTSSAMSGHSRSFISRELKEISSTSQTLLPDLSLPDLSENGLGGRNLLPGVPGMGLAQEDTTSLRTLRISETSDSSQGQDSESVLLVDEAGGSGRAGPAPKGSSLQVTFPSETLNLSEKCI
EP2 subtype of the human PGE2 receptor, sequence (P43116 whole entry): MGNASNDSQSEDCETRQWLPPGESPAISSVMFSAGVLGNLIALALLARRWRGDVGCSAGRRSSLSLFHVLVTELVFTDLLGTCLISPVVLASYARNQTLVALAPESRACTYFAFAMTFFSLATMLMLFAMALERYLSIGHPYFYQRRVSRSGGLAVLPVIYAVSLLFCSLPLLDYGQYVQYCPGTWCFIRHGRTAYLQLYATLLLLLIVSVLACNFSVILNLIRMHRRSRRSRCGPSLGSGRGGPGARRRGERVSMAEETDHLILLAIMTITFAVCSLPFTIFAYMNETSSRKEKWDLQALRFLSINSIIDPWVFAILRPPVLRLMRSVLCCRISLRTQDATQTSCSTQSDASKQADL

| SMILES | pIC50 [1] | Selectivity hEP2/hDP [2] | Selectivity hEP2/hEP4 [3] |
| --- | --- | --- | --- |
| COc1c(C(=O)NCCN2CCOCC2)ccc2nn(CC3CCN(C(=O)c4ccc(Cl)cc4)CC3)cc12 [Example 261, 2-{[1-(4-chlorobenzoyl)piperidin-4-yl]methyl}-4-methoxy-N-(2-morpholinoethyl)-2H-indazol-5-carboxamide] | 7.09 | xxx (xxx > 100) | xxx (xxx > 100) |
| COCCNC(=O)c1ccc2nn(CC3CCN(C(=O)c4ccc(-c5ccccc5F)cc4)CC3)cc2c1C [Example 47, 2-({1-[(2′-fluoro-biphenyl-4-yl)-carbonyl]piperidin-4-yl}methyl)-N-(2-methoxyethyl)-4-methyl-2H-indazol-5-carboxamide] | 8.25 | xxx (xxx > 100) | xxx (xxx > 100) |
| COCCNC(=O)c1ccc2nn(CC3CCN(C(=O)c4ccc(C(C)(C)C#N)cc4)CC3)cc2c1C [Example 341, 2-({1-[4-(1-cyano-1-methylethyl)benzoyl]piperidin-4-yl}methyl)-N-(2-methoxy-ethyl)-4-methyl-2H-indazol-5-carboxamide] | 7.26 | xxx (xxx > 100) | xxx (xxx > 100) |
| Cc1c(C(=O)NCC(F)(F)F)ccc2nn(CC3CCN(C(=O)c4ccc(Oc5ccc(C#N)cn5)cc4)CC3)cc12 [Example 310, 2-[(1-{4-[(5-cyanopyridin-2-yl)oxy]benzoyl}piperidin-4-yl)methyl]-4-methyl-N-(2,2,2-trifluoroethyl)-2H-indazol-5-carboxamide] | 6.09 | xx (xx: 10-100) | xx (xx: 10-100) |
| COC(C)CNC(=O)c1ccc2nn(CC3CN(C(=O)c4ccc(Oc5ccc(F)cc5)cc4)C3)cc2c1C (racemic) [Example 147, (+/−)-2-({1-[4-(4-fluorophenoxy)benzoyl]azetidin-3-yl}methyl)-N-(2-methoxypropyl)-4-methyl-2H-indazol-5-carboxamide] | 7.24 | xxx (xxx > 100) | xxx (xxx > 100) |
| Cc1c(C(=O)NCCOC(C)(C)C)ccc2nn(CC3CN(C(=O)c4ccc(Cl)cc4)C3)cc12 [Example 153, N-(2-tert-butoxyethyl)-2-{[1-(4-chlorobenzoyl)azetidin-3-yl]methyl}-4-methyl-2H-indazol-5-carboxamide] | 7.22 | xxx (xxx > 100) | xxx (xxx > 100) |
| COCCNC(=O)c1ccc2nn(CC3CCN(C(=O)c4ccc(-c5cc(F)cc(F)c5)cc4)CC3)cc2c1C [Example 389, 2-({1-[(3′,5′-difluorobiphenyl-4-yl)carbonyl]piperidin-4-yl}methyl)-N-(2-methoxyethyl)-4-methyl-2H-indazol-5-carboxamide] | 8.35 | xxx (xxx > 100) | xxx (xxx > 100) |
| COCCNC(=O)c1ccc2nn(CC3CCN(C(=O)c4ccc(-c5cccc(OC)n5)cc4)CC3)cc2c1C [Example 378, N-(2-methoxyethyl)-2-({1-[4-(6-methoxypyridin-2-yl)benzoyl]piperidin-4-yl}methyl)-4-methyl-2H-indazol-5-carboxamide] | 8.11 | xxx (xxx > 100) | xxx (xxx > 100) |
| Cc1c(C(=O)NCC(F)(F)F)ccc2nn(CC3CCN(C(=O)c4ccc(-c5ccc(C(F)(F)F)cn5)cc4)CC3)cc12 [Example 312, 4-methyl-N-(2,2,2-trifluoroethyl)-2-[(1-{4-[5-(trifluoromethyl)pyridin-2-yl]-benzoyl}piperidin-4-yl)methyl]-2H-indazol-5-carboxamide] | 6.80 | xxx (xxx > 100) | xxx (xxx > 100) |

Other lines, results leading:

| pIC50 [1] | Selectivity hEP2/hDP [2] | Selectivity hEP2/hEP4 [3] | SMILES |
| --- | --- | --- | --- |
| 7.59 | xxx (xxx > 100) | xxx (xxx > 100) | COCCNC(=O)c1ccc2nn(CC3CCN(C(=O)c4ccc(-c5cncc(F)c5)cc4)CC3)cc2c1C [Example 386, 2-({1-[4-(5-fluoropyridin-3-yl)benzoyl]piperidin-4-yl}methyl)-N-(2-methoxy-ethyl)-4-methyl-2H-indazol-5-carboxamide] |
| 7.36 | xxx (xxx > 100) | xxx (xxx > 100) | COCCNC(=O)c1cc2cn(CC3CCN(C(=O)c4ccc(Cl)cc4)CC3)nc2cc1C [Example 205, 2-{[1-(4-chlorobenzoyl)piperidin-4-yl]methyl}-N-(2-methoxyethyl)-6-methyl-2H-indazol-5-carboxamide] |
| 8.44 | xxx (xxx > 100) | xxx (xxx > 100) | COCCNC(=O)c1ccc2nn(CC3CCN(C(=O)c4ccc(-c5ccc(F)cc5C)cc4)CC3)cc2c1C [Example 376, 2-({1-[(4′-fluoro-2′-methylbiphenyl-4-yl)carbonyl]piperidin-4-yl}methyl)-N-(2-methoxyethyl)-4-methyl-2H-indazol-5-carboxamide] |
| 7.01 | xxx (xxx > 100) | xxx (xxx > 100) | Cc1cc2nn(CC3CN(C(=O)c4ccc(Oc5ccc(F)cc5)cc4)C3)cc2cc1C(=O)NCCSC(F)(F)F [Example 199, 2-({1-[4-(4-fluorophenoxy)benzoyl]azetidin-3-yl}methyl)-6-methyl-N-{2-[(trifluoromethyl)sulphanyl]ethyl}-2H-indazol-5-carboxamide] |
| 6.59 | xx (xx: 10-100) | xx (xx: 10-100) | Cc1c(C(=O)NCC(F)(F)F)ccc2nn(CC3CCN(C(=O)c4ccc(-c5cnc(C(F)(F)F)nc5)cc4)CC3)cc12 [Example 328, 4-methyl-N-(2,2,2-trifluoroethyl)-2-[(1-{4-[2-(trifluoromethyl)pyrimidin-5-yl]-benzoyl}piperidin-4-yl)methyl]-2H-indazol-5-carboxamide] |
| 7.95 | xxx (xxx > 100) | xxx (xxx > 100) | Cc1c(C(=O)NCC2COCCO2)ccc2nn(CC3CCN(C(=O)c4ccc(Oc5ccc(C(F)(F)F)cc5)cc4)CC3)cc12 (racemic) [Example 249, (+/−)-N-(1,4-dioxan-2-ylmethyl)-4-methyl-2-[(1-{4-[4-(trifluoromethyl)phenoxy]benzoyl}piperidin-4-yl)methyl]-2H-indazol-5-carboxamide] |
| 8.18 | xxx (xxx > 100) | xxx (xxx > 100) | Cc1c(C(=O)NCCOC2CC2)ccc2nn(CC3CN(C(=O)c4ccc(OC(F)(F)F)cc4)C3)cc12 [Example 136, N-[2-(cyclopropyloxy)ethyl]-4-methyl-2-({1-[4-(trifluoromethoxy)benzoyl]azetidin-3-yl}methyl)-2H-indazol-5-carboxamide] |
| 6.17 | xx (xx: 10-100) | xx (xx: 10-100) | Cc1c(C(=O)NCCN2CCOCC2)ccc2nn(CC3CCN(C(=O)c4ccc(Cl)cc4)CC3)cc12 [Example 62, 2-{[1-(4-chlorobenzoyl)piperidin-4-yl]methyl}-4-methyl-N-(2-morpholinoethyl)-2H-indazol-5-carboxamide] |
| 8.10 | xxx (xxx > 100) | xxx (xxx > 100) | COc1c(C(=O)NCCN2CCC(F)(F)C2)ccc2nn(CC3CN(C(=O)c4ccc(Cl)cc4)C3)cc12 [Example 260, 2-{[1-(4-chlorobenzoyl)azetidin-3-yl]methyl}-N-[2-(3,3-difluoropyrrolidin-1-yl)ethyl]-4-methoxy-2H-indazol-5-carboxamide] |
| 8.19 | xxx (xxx > 100) | xxx (xxx > 100) | COCCNC(=O)c1ccc2nn(CC3CCN(C(=O)c4ccc(C(C)(C)C)cc4)CC3)cc2c1C [Example 333, 2-{[1-(4-tert-butylbenzoyl)piperidin-4-yl]methyl}-N-(2-methoxyethyl)-4-methyl-2H-indazol-5-carboxamide] |
| 7.22 | xxx (xxx > 100) | xxx (xxx > 100) | COCCNC(=O)c1ccc2nn(CC3CCN(C(=O)c4ccc(Oc5ccncc5)cc4)CC3)cc2c1C [Example 51, N-(2-methoxyethyl)-4-methyl-2-({1-[4-(pyridyloxy)benzoyl]piperidin-4-yl}-methyl)-2H-indazol-5-carboxamide] |
| 6.52 | xx (xx: 10-100) | xx (xx: 10-100) | Cc1c(C(=O)NCC(F)(F)F)ccc2nn(CC3CCN(C(=O)c4nc(-c5ccccc5)no4)CC3)cc12 [Example 305, 4-methyl-2-({1-[(3-phenyl-1,2,4-oxadiazol-5-yl)carbonyl]piperidin-4-yl}methyl)-N-(2,2,2-trifluoroethyl)-2H-indazol-5-carboxamide] |
